# Measured values published in patent US7173062B2, “Method for the improvement of skin wrinkles using retinyl retinoate” (Enprani Co., Ltd., priority 2001, dated 2007).
# “Also recorded” adds a separate entry of the source.
# Tests used:
# [1] = test system: Normal human fibroblast (Newborn, passage: 6); experiment: Collagen synthesis test (Sircol collagen assay); assay type: cell-based; conditions: for increasing effect for collagen synthesis over control group treated only by DMEM: 2 days
# Protocol: The effect for collagen synthesis of the compound of formula (1) was examined by using retinol, retinoic acid, and derivatives thereof as comparison compounds to confirm its utility as inhibitors for skin aging as follows. The results are represented in FIG. 2.
# Cell: Normal human fibroblast (Newborn, passage: 6)
# Medium: DMEM containing 10% FBS→DMEM free of FBS was used when cells were treated with samples.
# Concentration: A range of concentration where the samples exert no toxicity to the cells was selected through a cell toxicity test ? 0.000001%, 0.00001%(w/v)
# Procedure: 1×10^5 cells/well were inoculated into a 6-well plate. Cells were cultured to show about 79–80% confluent. Cells were treated with test samples and incubated for 2 days (FBS was not added to the medium when cells were treated with samples). After 2 days, cell medium and cells were separated from each other and respectively stored in a refrigerator. The cell extract was subjected to the protein analysis (BCA Protein Assay Kit, PIERCE 23225) and the medium was subjected to collagen analysis.
# After the medium was removed, a small amount of PBS was added. Cells were scraped with a scraper. 1N NaOH (100 μl) and distilled water (400 μl) were added and the resulting mixture was allowed to stand overnight. Then, the protein analysis was carried out.
# Collagen analysis: Analysis kit (Sircol Collagen assay kit—a dye that specifically combines with soluble collagen is used)
# 1.0 ml of Sircol Dye Reagent was introduced into each tube and mixed for 30 minutes. The mixture was centrifuged for 10 minutes at 5,000 g or more and the supernatant was removed. 1.0 ml Sircol Alkali Reagent was added, slowly mixed, and absorbance at 540 nm was measured. The amount of protein was converted into the value of collagen analysis (see: Mechanism of Aging and Development 73, 179–187, 1994).
# After the above experiment, the increasing ratio for collagen synthesis of the test group over the control group treated only by DMEM was depicted in FIG. 2.
# [2] = Photostability test (UV-A 356 nm, 1H NMR); assay type: physicochemical; design: key: 4 = No qualitative change in ^1H NMR spectrum; 3 = Minute noise but no qualitative change in ^1H NMR spectrum; 2 = Clear noise and some qualitative change in ^1H NMR spectrum; 1 = Qualitative confirmation is difficult in ^1H NMR spectrum; conditions: room temperature
# Protocol: In order to examine photostability of the compound of formula (1) compared with retinol, 10 mg of sample was irradiated by UV-A light (wavelength 356 nm) using a Spectroline (Model CM-10; Fluorescence analysis cabinet; Spectronics Corporation, Westbury, N.Y., USA) at certain intervals of time at room temperature.
# RAR β = molecular target: T1, RAR β (Homo sapiens, UniProt P10826); experiment: Activity for RAR β (CAT reporter in HaCaT cells); assay type: cell-based; conditions: 1 μM, CAT ELISA
# T1 construct: expressed in transfected cells; host or cells: HaCaT
# T1 sequence (P10826 1-455): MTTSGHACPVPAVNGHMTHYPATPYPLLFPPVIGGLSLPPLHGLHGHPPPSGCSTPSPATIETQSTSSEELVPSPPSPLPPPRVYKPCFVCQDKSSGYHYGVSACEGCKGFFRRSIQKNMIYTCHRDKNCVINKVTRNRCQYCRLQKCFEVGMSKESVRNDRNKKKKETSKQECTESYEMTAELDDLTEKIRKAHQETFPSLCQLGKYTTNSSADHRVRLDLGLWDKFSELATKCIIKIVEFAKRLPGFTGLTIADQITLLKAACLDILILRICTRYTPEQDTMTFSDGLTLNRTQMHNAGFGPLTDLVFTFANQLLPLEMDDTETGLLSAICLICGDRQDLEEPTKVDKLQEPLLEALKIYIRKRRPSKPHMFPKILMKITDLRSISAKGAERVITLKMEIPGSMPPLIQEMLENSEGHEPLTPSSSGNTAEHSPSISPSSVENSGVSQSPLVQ
# Protocol: The effect of the retinol derivatives on the activity of RAR and RXR was examined as follows.
# Experimental procedure: Recombinant gene of DR5-tk-CAT or DR1-tk-CAT comprising DR1 or DR5 as a response element of RAR/RXR, […] promoter, and CAT (chloramphenicol acetyl transferase) was suitably combined with a plasmid DNA that expresses RAR α, β, γ and cotransfected to HaCaT cell line, a skin cancer cell line, with Lipofectamin (GibcoBRL). Then, the cells were incubated in DMEM/10% FBS medium for 1 day, retinol derivative was added in a concentration of 1 μM, and the cells were incubated again for 1 day under the condition of 5% CO2 and 37° C. The cells were washed with phosphate-buffered salione (PBS). Proteins were extracted from each cell, the activity of β-galactosidase was assayed, and the amount of protein was measured to determine the transfection efficiency. Further, the degree of transcription for RAR or RXR was analyzed by CAT ELISA (Roche Molecular Biochemicals, Mannheim, Germany).
# [3] = test system: AP-1 (comprising c-Jun protein); experiment: Inhibition of activity of AP-1 protein (Coll-CAT collagenase promoter reporter in HaCaT cells); assay type: cell-based; conditions: for inhibition of the expression of collagenase: cells treated together with RAR α (c-Jun expressed)
# Protocol: AP-1 (comprising c-Jun protein) is a transcription factor inducing the expression of collagenase that is a major cause of skin wrinkles. […] Therefore, studies thereabout were carried out in a similar manner to Experiment 6 as follows.
# Experimental procedure: CAT reporter (Coll-CAT) having the collagenase promoter wherein AP-1 response element (TRE) is contained, was transfected into HaCaT cell line, a skin cancer cell line, using a liposome. Then, the degree of inhibition against the activity of AP-1 by retinol derivatives was measured through CAT ELISA in a similar manner to Experiment 6. Further, the effect of retinol derivatives on the transcriptional activity of c-Jun (a protein that induces transfer of cancer, skin aging and inflammation, and consists of homologous isomers or heterologous isomers), a constitutional element of AP-1, was examined by cotransfecting c-Jun or RAR α expression vector.
# [4] = Condition of expression: c-Jun + RAR α, HaCaT, Coll-CAT, untreated = 8.6
# [5] = Condition of expression: c-Jun, HaCaT, Coll-CAT, untreated = 8.6
# [6] = Condition of expression: — (no c-Jun or RAR α vector), HaCaT, Coll-CAT, untreated = 1.0
Compound,"effect for collagen synthesis (FIG. 2), comparison in words ([1]; 0.000001%, 0.00001%(w/v), human fibroblast)",collagen synthesis effect relative to retinol at the same concentration ([1]; 10^−6% (W/V)),"increasing effect for collagen synthesis over control group treated only by DMEM ([1]; 10^−6% (W/V), human fibroblast) [%]","Photostability level ([2]; After 0 hour, 10 mg sample)",Photostability level ([2]; After 2 hours),Photostability level ([2]; After 12 hours),Photostability level ([2]; After 24 hours),Photostability level ([2]; After 48 hours),Relative activity against RAR β (RAR β; Control = 1.0),"Relative activity against RAR β (RAR β; Control = 1.0, listed as compound of formula (1))","Relative inhibition against the expression of collagenase [3, 4]","Relative inhibition against the expression of collagenase [3, 5]","Relative inhibition against the expression of collagenase [3, 6]","effect on / inhibitory activity against c-Jun (AP-1), in words ([3]; HaCaT, Coll-CAT, c-Jun / RAR α cotransfection)",inhibition of the expression of collagenase [3]
"CC1=C(/C=C/C(C)=C/C=C/C(C)=C/COC(=O)/C=C(C)/C=C/C=C(C)/C=C/C2=C(C)CCCC2(C)C)C(C)(C)CCC1 [Compound of formula (1), Retinyl retinoate]",superior effect for collagen synthesis at low concentration to retinol or retinoic acid,about 10 times,41.29,4,4,3,3,3,1.5,lower activity than retinoic acid but higher one than retinol; also recorded: low activity,4.1,6.7,0.7,"lower inhibitory activity against c-Jun than retinoic acid, but higher one than retinol",about 52%
CC1=C(/C=C/C(C)=C/C=C/C(C)=C/CO)C(C)(C)CCC1 [Retinol],–,–,4.94,4,3,2,1,1,1.3,–,5.8,7.3,0.8,–,about 33%
